In patent US20130096105A1, “ArylSulfonamide Based Matrix Metalloprotease Inhibitors” (NOVARTIS AG, priority 2008, published 2013) one finds IC50 and melting point data, which are given here for 22 molecules.

For one series, the target named is T1, Gelatinase (MMP-2) (Homo sapiens, UniProt P08253).
T1 sequence (P08253 110-660): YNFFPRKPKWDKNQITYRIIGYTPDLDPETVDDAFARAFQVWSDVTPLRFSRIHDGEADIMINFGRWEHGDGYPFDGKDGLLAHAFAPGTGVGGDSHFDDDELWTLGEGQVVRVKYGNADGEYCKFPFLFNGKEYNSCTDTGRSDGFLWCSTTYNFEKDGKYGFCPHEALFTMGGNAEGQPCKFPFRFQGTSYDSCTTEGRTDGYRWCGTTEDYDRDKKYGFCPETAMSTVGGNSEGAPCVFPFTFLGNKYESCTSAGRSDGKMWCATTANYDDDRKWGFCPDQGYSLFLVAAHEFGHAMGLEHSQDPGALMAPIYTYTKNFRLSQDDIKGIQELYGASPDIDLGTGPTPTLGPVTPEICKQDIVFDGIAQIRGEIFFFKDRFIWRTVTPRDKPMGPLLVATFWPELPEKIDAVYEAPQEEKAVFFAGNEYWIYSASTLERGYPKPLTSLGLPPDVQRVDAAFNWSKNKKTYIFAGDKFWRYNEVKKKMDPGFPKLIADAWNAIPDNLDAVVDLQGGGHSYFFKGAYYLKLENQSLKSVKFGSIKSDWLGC
The series can be described thus: Gelatinase (MMP-2) inhibitory activity, fluorogenic peptide substrate cleavage. In kind it is biochemical. The procedure, abridged:
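Fluorogenic assay with MCA-Lys-Pro-Leu-Gly-Leu-Dpa-Ala-Arg-NH2 at 5 μM in Tris-Cl pH 7.5 buffer with ZnCl2, CaCl2, Brij-35 and 1.0% DMSO, 20-25 °C. Enzyme preincubated with inhibitor 60 min; fluorescence (ex 325/em 405 nm) read 60 min after substrate addition. IC50 relative to uninhibited control.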

The target in another series is Collagenase-3 (MMP-13) (Homo sapiens, UniProt P45452). The series can be described thus: Collagenase-3 (MMP-13) inhibitory activity, fluorogenic peptide substrate cleavage. Type of series: biochemical. The procedure, abridged:
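Recombinant pro-MMP-13 activated with 1 mM APMA; inhibitor preincubated 60 min, then 5 μM MCA-Lys-Pro-Leu-Gly-Leu-Dpa-Ala-Arg-NH2 added in Tris-Cl pH 7.5 buffer with Zn2+, Ca2+, Brij-35, 1.0% DMSO, 20-25 °C. Fluorescence (ex 325/em 405 nm) read after 60 min; IC50 versus uninhibited control.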

Each structure is given as a SMILES string. Read-outs that look alike come from different tables or passages of the source.

Broadly, the IC50 is the concentration needed to halve the response being measured. What is called melting point is the temperature of the solid-liquid transition. `NS(=O)(=O)c1cc(C(=O)c2ccc(O)c(F)c2)ccc1Cl` [Example 47, 2-Chloro-5-(3-fluoro-4-hydroxy-benzoyl)-benzenesulfonamide] returned a melting point of 206 to 208 °C. Besides, on Gelatinase (MMP-2) (read-out: MMP02 IC50), the IC50 turned out to be 17.3 µM. In addition, the IC50 at Collagenase-3 (MMP-13) (read-out: MMP13 IC50) turned out to be 11.1 µM.

As to `NS(=O)(=O)c1cc(C(=O)c2ccc(C(=O)N3CCCC3)cc2)ccc1Cl` [Example 53, 2-Chloro-5-[4-(pyrrolidine-1-carbonyl)-benzoyl]-benzenesulfonamide], the melting point was in the range of 146 to 148 °C. Besides, the IC50 on Gelatinase (MMP-2) (read-out: MMP02 IC50) was > 30 µM. The IC50 at Collagenase-3 (MMP-13) (read-out: MMP13 IC50) is > 30 µM.

`COc1ccc(C(=O)c2ccc(Cl)c(S(N)(=O)=O)c2)cc1` [Example 3, 2-Chloro-5-(4-methoxy-benzoyl)-benzenesulfonamide] yielded a melting point of 156 to 158 °C. Also, the IC50 at Gelatinase (MMP-2) (read-out: MMP02 IC50) is 5.18 µM. On Collagenase-3 (MMP-13) (read-out: MMP13 IC50), the IC50 came to 2.02 µM.

The molecule `NS(=O)(=O)c1cc(C(=O)c2ccc3[nH]ccc3c2)ccc1Cl` [Example 116, 2-Chloro-5-(1H-indole-5-carbonyl)-benzenesulfonamide] registered a melting point of 65 to 66 °C. Also, the concentration for half-maximal inhibition (IC50) on Gelatinase (MMP-2) (read-out: MMP02 IC50) was determined as 15.4 µM. Besides, the IC50 on Collagenase-3 (MMP-13) (read-out: MMP13 IC50) came out at 15.3 µM.

On to `Cc1cccc(-c2ccc(C(=O)c3ccc(Cl)c(S(N)(=O)=O)c3)cc2)c1` [Example 60, 2-Chloro-5-(3′-methyl-biphenyl-4-carbonyl)-benzenesulfonamide], for which the melting point fell in the range of 176 to 178 °C. Moreover, the IC50 at Gelatinase (MMP-2) (read-out: MMP02 IC50) was 6.31 µM. Besides, the IC50 at Collagenase-3 (MMP-13) (read-out: MMP13 IC50) amounted to 5.44 µM.

`NS(=O)(=O)c1cc(C(=O)c2ccc3c(c2)CCN3)ccc1Cl` [Example 110, 2-Chloro-5-(2,3-dihydro-1H-indole-5-carbonyl)-benzenesulfonamide] yielded a melting point of 55 to 56 °C. The IC50 at Gelatinase (MMP-2) (read-out: MMP02 IC50) came to 12 µM. In addition, at Collagenase-3 (MMP-13) (read-out: MMP13 IC50), the IC50 was 16.1 µM.

For `Nc1cccc(-c2ccc(C(=O)c3ccc(Cl)c(S(N)(=O)=O)c3)cc2)c1` [Example 69, 5-(3′-Amino-biphenyl-4-carbonyl)-2-chloro-benzenesulfonamide], the melting point was 228 to 230 °C. The IC50 on Gelatinase (MMP-2) (read-out: MMP02 IC50) amounted to 1.37 µM. Moreover, the half-inhibitory concentration (IC50) at Collagenase-3 (MMP-13) (read-out: MMP13 IC50) worked out at 2.41 µM.

`NS(=O)(=O)c1cc(C(=O)c2ccc(-c3ccc4ccccc4c3)cc2)ccc1Cl` [Example 38, 2-Chloro-5-(4-naphthalen-2-yl-benzoyl)-benzenesulfonamide] returned a melting point of 193 to 195 °C. The IC50 on Gelatinase (MMP-2) (read-out: MMP02 IC50) was 14.5 µM. The IC50 at Collagenase-3 (MMP-13) (read-out: MMP13 IC50) was determined as 8.58 µM.

`NS(=O)(=O)c1cc(C(=O)c2ccc(-c3cccc(C(F)(F)F)c3)cc2)ccc1Cl` [Example 75, 2-Chloro-5-(3′-trifluoromethyl-biphenyl-4-carbonyl)-benzenesulfonamide] gave a melting point of 75 to 77 °C. Also, the IC50 at Gelatinase (MMP-2) (read-out: MMP02 IC50) was > 30 µM. On Collagenase-3 (MMP-13) (read-out: MMP13 IC50), the IC50 worked out at 25.9 µM.

`COc1ccc(C(=O)c2cccc(S(N)(=O)=O)c2)cc1` [Example 1, 3-(4-Methoxy-benzoyl)-benzenesulfonamide] came in with a melting point of 119 to 122 °C. For the same molecule, at Gelatinase (MMP-2) (read-out: MMP02 IC50), the IC50 came out at 1.92 µM. For the same molecule, the IC50 at Collagenase-3 (MMP-13) (read-out: MMP13 IC50) was 2.49 µM.

Turning to `NS(=O)(=O)c1cc(C(=O)c2ccc(-c3cccnc3)cc2)ccc1Cl` [Example 41, 2-Chloro-5-(4-pyridin-3-yl-benzoyl)-benzenesulfonamide], the melting point was 190 to 192 °C. Moreover, the IC50 on Gelatinase (MMP-2) (read-out: MMP02 IC50) was > 9 µM. At Collagenase-3 (MMP-13) (read-out: MMP13 IC50), the IC50 was 7.52 µM.

Regarding `NS(=O)(=O)c1cc(C(=O)c2ccc(O)cc2F)ccc1Cl` [Example 50, 2-Chloro-5-(2-fluoro-4-hydroxy-benzoyl)-benzenesulfonamide], the melting point is 183 to 185 °C. Also, the IC50 on Gelatinase (MMP-2) (read-out: MMP02 IC50) stood at 24.3 µM. Further, the IC50 at Collagenase-3 (MMP-13) (read-out: MMP13 IC50) turned out to be 21.3 µM.

Molecule `C#Cc1ccc(C(=O)c2ccc(Cl)c(S(N)(=O)=O)c2)cc1` [Example 31, 2-Chloro-5-(4-ethynyl-benzoyl)-benzenesulfonamide] gave a melting point of 147 to 149 °C. Besides, the IC50 at Gelatinase (MMP-2) (read-out: MMP02 IC50) was 10.4 µM. In addition, on Collagenase-3 (MMP-13) (read-out: MMP13 IC50), the half-inhibitory concentration (IC50) amounted to 12.4 µM.

For the molecule `CC(C)(C)NC(=O)c1ccc(C(=O)c2ccc(Cl)c(S(N)(=O)=O)c2)cc1` [Example 52, N-tert-Butyl-4-(4-chloro-3-sulfamoyl-benzoyl)-benzamide], the values for the IC50 at Gelatinase (MMP-2) (read-out: MMP02 IC50) and on Collagenase-3 (MMP-13) (read-out: MMP13 IC50) were 29.1 µM and 21.3 µM, respectively.

With `NS(=O)(=O)c1cc(C(=O)c2ccc(N3CCCC3)cc2)ccc1Cl` [Example 80, 2-Chloro-5-(4-pyrrolidin-1-yl-benzoyl)benzenesulfonamide], the figures for the IC50 at Gelatinase (MMP-2) (read-out: IC50 (gelatinase MMP-2)), at Collagenase-3 (MMP-13) (read-out: IC50 (collagenase-3 MMP-13)) and on Collagenase-3 (MMP-13) (read-out: MMP13 IC50) were 0.055 µM, ~0.113 µM and 0.113 µM, respectively.

For the molecule `NS(=O)(=O)c1cc(C(=O)c2ccc3c4c([nH]c3c2)C(=O)NCC4)ccc1Cl` [Example 105, 2-Chloro-5-(1-oxo-2,3,4,9-tetrahydro-1H-beta-carboline-7-carbonyl)-benzenesulfonamide], the IC50 at Gelatinase (MMP-2) (read-out: MMP02 IC50) amounted to 8 µM; on Collagenase-3 (MMP-13) (read-out: MMP13 IC50) it was 9 µM.

For `NS(=O)(=O)c1cc(C(=O)c2ccc(N3CCCCCC3)cc2)ccc1Cl` [Example 90, 5-(4-Azepan-1-yl-benzoyl)-2-chloro-benzenesulfonamide], the IC50 on Gelatinase (MMP-2) (read-out: MMP02 IC50) is 13.8 µM; on Collagenase-3 (MMP-13) (read-out: MMP13 IC50), 10.8 µM.

`CCS(=O)(=O)c1ccc(-c2c[nH]c3cc(C(=O)c4ccc(Cl)c(S(N)(=O)=O)c4)ccc23)cc1` [Example 125, 2-Chloro-5-[3-(4-ethanesulfonyl-phenyl)-1H-indole-6-carbonyl]-benzenesulfonamide]: the IC50 was > 30 µM on Gelatinase (MMP-2) (read-out: MMP02 IC50) and 1.01 µM at Collagenase-3 (MMP-13) (read-out: MMP13 IC50).

With `CC(=O)c1ccc(-c2c[nH]c3cc(C(=O)c4ccc(Cl)c(S(N)(=O)=O)c4)ccc23)cc1` [Example 122, 5-[3-(4-Acetyl-phenyl)-1H-indole-6-carbonyl]-2-chloro-benzenesulfonamide], the IC50 came to 12.5 µM at Gelatinase (MMP-2) (read-out: MMP02 IC50) and 1.45 µM on Collagenase-3 (MMP-13) (read-out: MMP13 IC50).

On to `NS(=O)(=O)c1cc(C(=O)c2ccc(-c3ccccc3)cc2)ccc1Cl` [Example 76, 5-(Biphenyl-4-carbonyl)-2-chloro-benzenesulfonamide], for which the IC50 on Gelatinase (MMP-2) (read-out: MMP02 IC50) amounted to 21.7 µM; at Collagenase-3 (MMP-13) (read-out: MMP13 IC50), 12 µM.

As to `COc1ccc(C(=O)c2ccc(F)c(S(N)(=O)=O)c2)cc1` [Example 2, 2-Fluoro-5-(4-methoxy-benzoyl)-benzenesulfonamide], the IC50 stood at 2.41 µM on Gelatinase (MMP-2) (read-out: MMP02 IC50) and 1.59 µM on Collagenase-3 (MMP-13) (read-out: MMP13 IC50).

Consider `NS(=O)(=O)c1cc(C(=O)c2ccc(-c3cccc([N+](=O)[O-])c3)cc2)ccc1Cl` [Example 68, 2-Chloro-5-(3′-nitro-biphenyl-4-carbonyl)-benzenesulfonamide], for which the IC50 on Gelatinase (MMP-2) (read-out: MMP02 IC50) stood at 3.44 µM; at Collagenase-3 (MMP-13) (read-out: MMP13 IC50) it was 3.15 µM.
